Laboratory results from article PMC4452637, “Identification of positron emission tomography (PET) tracer candidates by prediction of the target-bound fraction in the brain” (EJNMMI Research, 2014).
pKd: −log10 of the molar value. Like-named read-outs stand apart in the source and are kept apart here.

What was measured:
SERT = target: SERT; design: method as in ref 5, 19, 43, 45, 67 (Additional file 1); details: literature value; 67 (Additional file 1); cited from earlier work
[1] = design: method as in ref 10 (a number printed in a supplementary file, which may have a reference list of its own: not looked up in the article's list); details: unbound fraction in homogenized brain tissue, reported; cited from earlier work
[2] = Unbound fraction in brain homogenate (fu,brain); Vu,brain calculated from it with pH-partition model; details: calculated from reported fu,brain and tracer pKa with pH-partition model (tracers with fu,brain tabulated, footnote h of Table S1)
Experimental: The unbound volume of distribution in the brain (Vu,brain) describing the extent of non-specific partitioning was determined for 31 tracers using a previously described high-throughput brain slice method [11].

TSPO [3] = details: PET, basal ganglia, 81 (Additional file 1), cited from earlier work
AchE = details: literature value; ref 18 (Additional file 1); cited from earlier work
[4] = High-throughput brain slice method (Vu,brain); details: unbound volume of distribution in brain, measured in rat brain slices, LC-MS/MS (no fu,brain tabulated in Table S1)
DAT [5] = target: DAT; design: method as in ref 26, 31, 57 (Additional file 1); details: literature value; 57 (Additional file 1); cited from earlier work
H3 = target: H3; design: method as in ref 38 (Additional file 1); details: literature value; ref 38 (Additional file 1); cited from earlier work
nAChr a4b2 = details: PET, thalamus, ref 3 (Additional file 1), cited from earlier work
NET = details: literature value; 76 (Additional file 1); cited from earlier work
5HT1a = details: PET, hippocampus, 65 (Additional file 1), cited from earlier work
5HT2a = details: PET, temporal cortex, 47 (Additional file 1), cited from earlier work
D2 [6] = details: PET, cited from earlier work
Amyloid [7] = target: Amyloid; design: method as in ref 12, 13, 14, 15 (Additional file 1); details: literature value; 15 (Additional file 1); cited from earlier work
Amyloid [8] = details: PET, cortex, 61 (Additional file 1), cited from earlier work
D2 [9] = target: D2; design: method as in ref 22, 31, 62, 82 (Additional file 1); details: literature value; 82 (Additional file 1); cited from earlier work
DAT [10] = details: PET, striatum, 58 (Additional file 1), cited from earlier work
NK1 = target: NK1; design: method as in ref 36 (Additional file 1); details: literature value; ref 36 (Additional file 1); cited from earlier work
CB1r = target: CB1r; design: method as in ref 48 (Additional file 1); details: literature value; ref 48 (Additional file 1); cited from earlier work
TSPO [11] = target: TSPO; design: method as in ref 28, 29, 55 (Additional file 1); details: literature value; 55 (Additional file 1); cited from earlier work
GABA = target: GABA; design: method as in ref 33, 74 (Additional file 1); details: literature value; 74 (Additional file 1); cited from earlier work
KOR = target: KOR; design: method as in ref 35 (Additional file 1); details: literature value; ref 35 (Additional file 1); cited from earlier work
[12] = caudate/striatum, ref 23 (Additional file 1)

Cc1ccc(Sc2ccccc2CN(C)C)c(N)c1 [[^11C]MADAM]
pKd (SERT): 10.22

[11CH3]Nc1ccc(-c2nc3ccc(O)cc3s2)cc1 [[^11C]PIB]
fu,brain [1]: 0.004

[11CH3]N1C(=O)Cc2cc3c(CCC4CCN(Cc5ccccc5)CC4)noc3cc21 [[^11C]CP-126998]
fu,brain [1]: 0.07
V u,brain [2]: 41 mL/g brain

CC(=O)N(Cc1ccccc1OCC[18F])c1cnccc1Oc1ccccc1 [[^18 F]FEPPA]
BP ND (TSPO [3]): 4.4
BP ND (TSPO [3]; listed as [^18F]FEPPA): 4.4[30]
fu,brain [1]: 0.07
V u,brain [2]: 15 mL/g brain

CN1C(=O)Cc2cc3c(CCC4CCN(Cc5ccccc5)CC4)noc3cc21 [[^11C]CP-126998]
pKd (AchE): 9.32

[11CH3]N1CCc2cc(Cl)c(O)cc2[C@@H](c2cccc3ccoc23)C1 [[^11C]NNC112]
V u,brain [4]: 70 mL/g brain

C[C@@H](N[C@@H]1C[C@H](c2cccc(O[11CH3])c2)N(c2ccc(C(F)(F)F)cc2)C1=O)c1ccccc1 [[^11C]MePPEP]
V u,brain [4]: 296 mL/g brain

[11CH3]OC(=O)N1CCN(C(=O)Cc2ccc(Cl)c(Cl)c2)[C@H](CN2CCCC2)C1 [[^11C]GR103545]
fu,brain [1]: 0.07
V u,brain [2]: 41 mL/g brain

Cc1ccc([C@H]2C[C@@H]3CC[C@H]([C@H]2C(=O)OCCF)N3C/C=C/I)cc1 [[^18 F]FE-PE2I]
pKd (DAT [5]): 7.92

[11CH3]N1CCc2cc(Cl)c(O)cc2[C@@H](c2ccccc2)C1 [[^11C]SCH23390]
fu,brain [1]: 0.06
V u,brain [2]: 32 mL/g brain

CNC(=O)c1ccc(Oc2ccc3c(c2)CCN(C2CCC2)CC3)nc1 [[^11C]GSK189254A]
pKd (H3): 10.10

COc1ccccc1N1CCN(CCN(c2ccccn2)[11C](=O)C2CCCCC2)CC1 [[^11C]WAY100635]
V u,brain [4]: 14 mL/g brain

Cc1nccc2c1[nH]c1cc(O[11CH3])ccc12 [[^11C]Harmine]
fu,brain [1]: 0.04
V u,brain [2]: 25 mL/g brain

[18F]c1ncccc1OC[C@@H]1CCN1 [[^18 F]2-FA-85380]
BP ND (nAChr a4b2): 1.8
BP ND (nAChr a4b2; listed as [^18F]2-FA-85380): 1.8[3]

COc1ccccc1O[C@@H](c1ccccc1)[C@H]1CNCCO1 [[^11C]MeNER]
pKd (NET): 8.60

COc1ccccc1N1CCN(CCN(C(=O)c2ccc([18F])cc2)c2ccccn2)CC1 [[^18 F]MPPF]
BP ND (5HT1a): 1.6
BP ND (5HT1a; listed as [^18F]MPPF): 1.6[51]
fu,brain [1]: 0.1
V u,brain [2]: 14 mL/g brain

O=C(c1ccc([18F])cc1)C1CCN(CCn2c(=S)[nH]c3ccccc3c2=O)CC1 [[^18 F]Altanserin]
BP ND (5HT2a): 1.06
BP ND (5HT2a; listed as [^18F]Altanserin): 1.06[8]
fu,brain [1]: 0.02
V u,brain [2]: 122 mL/g brain

CCN1CCC[C@H]1CNC(=O)c1cc(Br)cc(OC)c1O[11CH3] [[^11C]FLB457]
fu,brain [1]: 0.11
V u,brain [2]: 26 mL/g brain

[11CH3]NC(=O)c1ccc(Oc2ccc3c(c2)CCN(C2CCC2)CC3)nc1 [[^11C]GSK189254A]
fu,brain [1]: 0.24

CCN1CCC[C@H]1CNC(=O)c1c(O)c(Cl)cc(Cl)c1O[11CH3] (racemic) [[^11C]Raclopride]
BP ND (D2 [6]; [12]): 2.6

[11CH3]Oc1ccccc1O[C@@H](c1ccccc1)[C@H]1CNCCO1 [[^11C]MeNER]
fu,brain [1]: 0.07
V u,brain [2]: 31 mL/g brain

COc1c(O[11CH3])cccc1[C@H](O)C1CCN(CCc2ccc(F)cc2)CC1 [[^11C]MDL100907]
V u,brain [2]: 17 mL/g brain

CNc1ccc(-c2nc3ccc(O)cc3s2)cn1 [[^11C]AZD2184]
pKd (Amyloid [7]): 8.31

CNc1ccc(-c2cc3cc(O)ccc3o2)c([18F])n1 [[^18 F]AZD4694]
BP ND (Amyloid [8]): 1.2
BP ND (Amyloid [8]; listed as [^11C]AZD4694): 1.2[16]
V u,brain [4]: 205 mL/g brain

COC(=O)C1C(c2ccc(C)cc2)CC2CCC1N2CC=CI (stereo not shown) [[^11C]PE2I]
pKd (DAT [5]): 8.31

CCN1CCC[C@H]1CNC(=O)c1cc(Br)cc(OC)c1OC [[^11C]FLB457]
pKd (D2 [9]): 10.70

COC(=O)[C@H]1[C@@H](c2ccc(I)cc2)C[C@@H]2CC[C@H]1N2CCC[18F] [[^18 F]FP-CIT]
BP ND (DAT [10]): 1.0
BP ND (DAT [10]; listed as [^18F]FP-CIT): 1[32]
V u,brain [4]: 36 mL/g brain

CCC(C)N(C)C(=O)c1cc2ccccc2c(-c2ccccc2Cl)n1 (stereo not shown) [[^11C]PK11195]
fu,brain [1]: 0.01
V u,brain [2]: 59 mL/g brain

COc1ccc(-n2nnnc2C(F)(F)F)cc1CN[C@H]1CCCN[C@H]1c1ccccc1 [[^11C]GR205171]
pKd (NK1): 10.80
fu,brain [1]: 0.05
V u,brain [2]: 57 mL/g brain

COc1cccc([C@H]2C[C@@H](N[C@H](C)c3ccccc3)C(=O)N2c2ccc(C(F)(F)F)cc2)c1 [[^11C]MePPEP]
pKd (CB1r): 10.00

CC(=O)N(Cc1ccccc1OCCF)c1cnccc1Oc1ccccc1 [[^18 F]FEPPA]
pKd (TSPO [11]): 10.15

Cc1ccc(N2CCN([11CH3])CC2)c2oc(C(=O)Nc3ccc(N4CCOCC4)cc3)cc(=O)c12 [[^11C]AZ10419369]
V u,brain [4]: 30 mL/g brain

C=CCN1CCC[C@H]1CNC(=O)c1cc(CCCF)cc(OC)c1OC [[^18 F]Fallypride]
pKd (D2 [9]): 10.52

CSc1ccc([C@H]2CN3CCC[C@H]3c3ccccc32)cc1 [[^11C]McN5652]
pKd (SERT): 9.70

CNc1ccc(-c2cc3cc(O)ccc3o2)c(F)n1 [[^18 F]AZD4694]
pKd (Amyloid [7]): 8.64

CN([11CH3])Cc1ccccc1Sc1ccc(C#N)cc1N [[^11C]DASB]
fu,brain [1]: 0.09
V u,brain [2]: 31 mL/g brain

CCOC(=O)c1ncn2c1CN(C)C(=O)c1cc(F)ccc1-2 [[^11C]Flumazenil]
pKd (GABA): 9.15

O=C(CCCN1CCC2(CC1)C(=O)NCN2c1ccccc1)c1ccc([18F])cc1 [[^18 F]Spiperone]
V u,brain [4]: 147 mL/g brain

Cc1ccc(Sc2ccccc2CN(C)[11CH3])c(N)c1 [[^11C]MADAM]
V u,brain [4]: 90 mL/g brain

[11CH3]Sc1ccc([C@H]2CN3CCC[C@H]3c3ccccc32)cc1 [[^11C]McN5652]
V u,brain [4]: 238 mL/g brain

COC(=O)[C@H]1[C@@H](c2ccc(I)cc2)C[C@@H]2CC[C@H]1N2CCCF [[^18 F]FP-CIT]
pKd (DAT [5]): 7.48

Cc1ccc([C@H]2C[C@@H]3CC[C@H]([C@H]2C(=O)OCC[18F])N3C/C=C/I)cc1 [[^18 F]FE-PE2I]
BP ND (DAT [10]): 4.1
BP ND (DAT [10]; listed as [^11C]FE-PE2I): 4.1[27]
V u,brain [4]: 62 mL/g brain

[11CH3]Nc1ccc(-c2nc3ccc(O)cc3s2)cn1 [[^11C]AZD2184]
V u,brain [4]: 33 mL/g brain

CCN1CCC[C@H]1CNC(=O)c1c(OC)ccc(Br)c1OC [[^11C]Remoxipride]
pKd (D2 [9]): 6.57

COC(=O)N1CCN(C(=O)Cc2ccc(Cl)c(Cl)c2)[C@H](CN2CCCC2)C1 [[^11C]GR103545]
pKd (KOR): 10.32

CNCCC(Oc1ccccc1OC)c1ccccc1 (racemic) [[^11C]Nisoxetine]
pKd (NET): 9.14

C=CCN1CCC[C@H]1CNC(=O)c1cc(CCC[18F])cc(OC)c1OC [[^18 F]Fallypride]
BP ND (D2 [6]; [12]): 22.2
BP ND (D2 [6]; caudate/striatum, ref 23 (Additional file 1), listed as [^18F]Fallypride): 22.2[23]
BP ND (D2 [6]; thalamus, 32 (Additional file 1)): 2.11
BP ND (D2 [6]; thalamus, 32 (Additional file 1), listed as [^18F]Fallypride): 2.11[23]
fu,brain [1]: 0.15
V u,brain [2]: 18 mL/g brain

Cc1ccc(C2CC3CCC(C2C(=O)O[11CH3])N3CC=CI)cc1 (stereo not shown) [[^11C]PE2I]
V u,brain [4]: 39 mL/g brain
